≈ marks a conversion by molar mass, not a printed value. Like-named read-outs stand apart in the source and are kept apart here.
Columns and labels:
[1] = In vitro cytotoxicity assay (resazurin) on Raw 264.7 macrophage cells; format: cell-based, murine; conditions: mouse
Method: RAW 264.7 cells were obtained from RIKEN BioResource Centre Cell Bank (Tsukuba, Japan) and cultured in Dulbecco’s modified Eagle medium (DMEM) containing 1% penicillin–streptomycin and 10% FBS under 5% CO2 and humidified atmosphere at 37 °C and sub-cultured every 72 h.
(§1) A stock solution was prepared at 100 mg/mL for each extract and fraction and at 50 mg/mL for isolated compound in 100% DMSO (Sigma–Aldrich, Munich, Germany). Master plates were then prepared by mixing 2 μL of each stock solution with 198 μL of fresh incomplete RPMI 1 640 culture medium to yield a concentration of 1 mg/mL for extract and fraction and of 0.5 mg/mL (1% DMSO) followed by a 5-fold serial dilution. Extracts and fractions were tested at concentrations ranging from 0.16 to 100 μg/mL, and isolated compounds at concentrations ranging from 0.08 to 50 μg/mL.
The murine macrophages, Raw 264.7 cells were grown in a T-25 cm^2 flask containing the complete Dulbecco’s modified Eagle’s medium (Sigma–Aldrich, Munich, Germany) supplemented with 10% FBS (Sigma–Aldrich, Munich, Germany), 1% non-essential amino acids, and 1% (v/v) penicillin–streptomycin (Sigma–Aldrich, Munich, Germany) and incubated at 37° in a humidified atmosphere containing 5% CO2. For the experiments, 80–90% confluent cell culture was trypsinized, counted using a Neubauer haemacytometer, and seeded into a 96-well cell culture treated flat-bottomed plate (SARSTEDT, Inc. Newton, NC 28658, USA) at a cell density of 10^4 cells/well. Plates were incubated overnight to allow cell adhesion. Cells were then treated with serially diluted concentrations of crude extract, fractions, and isolated compounds for 48 h. Podophyllotoxin (Sigma–Aldrich, Munich, Germany) was used as positive control with the highest concentration of 10 μM. Afterwards, 10 μL of resazurin solution (0.15 mg/mL prepared in PBS) was added to each well, and the plates were additionally incubated for 4 h. Of important note, resazurin is a nonfluorescent, nontoxic, and cell-permeable blue dye which is used to quantify cell viability following its conversion into the highly fluorescent pink dye resorufin in response to changes in the reducing environment within the cytosol of the cell. The level of fluorescence that positively correlates with cell viability was measured using a Magellan Infinite M200 plate reader (Tecan, Germany) at an excitation wavelength of 530 nm and an emission wavelength of 590 nm. The growth proliferation percentage of cells was calculated with respect to the negative control. The concentration–response curves were plotted using inhibitory percentages versus the logarithm of the drug concentration to determine the concentration of drug that reduces cell viability by 50% (CC50) using GraphPad Prism 8.0 software. Selectivity indices (SI) [SI = CC50/IC50] were determined for each inhibitor based on their antiparasitic activity (IC50) and cell cytotoxicity (CC50 on Raw cells). Samples with SI greater than 10 were classified as poorly toxic toward Raw cells.

[2] = system: P. falciparum chloroquine-sensitive (Pf3D7); assay: Antiplasmodial SYBR green I based fluorescence assay, chloroquine-sensitive strain; format: cell-based; conditions: Plasmodium falciparum, read-out: Pf3D7 IC50 ± SD
Excerpt: (§2) The cryopreserved chloroquine-sensitive (Pf3D7-(MRA-102)), the multi-resistant (PfDd2) of Plasmodium falciparum, and the promastigote form of Leishmania donovani strains were obtained from BEI Resources (https://www.beiresources.org/ (accessed on 16 February 2019)) and are routinely cultured at the Antimicrobial and Biocontrol Agents Unit, University of Yaoundé I.
(§3) Plasmodium falciparum strains were maintained in 60 mm sterile petri dishes containing complete RPMI 1640 medium [RPMI 1640 (Sigma Aldrich) supplemented with 0.2% sodium bicarbonate (Sigma Aldrich), 0.5% Albumax II (Gibco), 1% hypoxanthine 100X (Gibco, Billings, MT, USA), 25 mM HEPES, and 0.04% gentamicin (Sigma Aldrich)] with fresh O^+ erythrocytes of healthy human volunteers suspended at 4% haematocrit (v/v) and incubated at 37 °C in a 5% CO2 humidified atmosphere. The medium was replaced daily with fresh complete medium to propagate the culture. Ten percent (10%) Giemsa-stained thin blood smears were examined microscopically under immersion oil to monitor cell-cycle transition and parasitaemia.
as §1
(§4) The use of mixed-stage cultures can enable the test molecules to interact with all the three stages (ring, trophozoite, and schizont) found during a 48-h life cycle of P. falciparum in culture. Moreover, starting the experiment with a synchronized ring stage culture provides the advantage of monitoring the growth inhibitory effect of test samples without a rise-up in parasitemia during the ring–trophozoite–schizont transitions. For this particular reason, parasites were synchronized at the ring stage by serial treatment with 5 % sorbitol for two days prior to each experiment with respect to Lambros and Vanderberg, 1979 [44] protocol.
(§5) Drug sensitivity assay was carried out in 96-well microtitration plates using the SYBR green I based fluorescence assay (Smilkstein et al., 2004). […] The fact that human red blood host cells are anucleate allows the use of SYBR green for the proper monitoring of the growth of the malarial parasite.
(§6) The 96 wells flat-bottom assay plates with sorbitol-synchronized ring stage parasites (haematocrit: 1%, parasitaemia: 2%, 90 μL) were incubated in the presence of 10 µL of pre-diluted extracts, fractions, isolated compounds, and reference drugs [Chloroquine and Artemisinin (Sigma–Aldrich, Munich, Germany)] at different triplicate concentrations (100 µg/mL–0.16 µg/mL for extract/fractions and 50 µg/mL–0.08 µg/mL for compounds). After an incubation period of 72 h at 37 °C, 100 μL of the SYBR Green I solution prepared in a lysis buffer (0.2 µL of 10,000× SYBR Green I per mL of lysis buffer) consisting of Tris (20 mM; pH 7.5), EDTA (5 mM), saponin (0.008%; m/v), and Triton X-100 (0.08%; v/v) was added to each well, mixed twice gently with a multi-channel pipette, and incubated in the dark at 37 °C for 1 h. Fluorescence was measured using the microplate reader Infinite M200 (Tecan) at an excitation and emission wavelength of 485 and 538 nm, respectively. […] The data analysis was performed with GraphPad Prism 8.0 software, fitting by nonlinear regression, and concentration–response curves were generated to determine the median inhibitory concentration (IC50) for each sample.

[3] = system: P. falciparum chloroquine-resistant (PfDd2); assay: Antiplasmodial SYBR green I based fluorescence assay, chloroquine-resistant strain; format: cell-based; conditions: Plasmodium falciparum, read-out: PfDd2 IC50 ± SD
Excerpt: as §2, §3, §1, §4, §5, §6
The resistance index (RI) was determined as the ratio of the IC50 of the samples on the multi-resistant strain Dd2 and the IC50 on the chloroquine-sensitive strain 3D7 as reported by Douanla et al..

[4] = system: leishmania promastigotes; parameters: method as in PMID 31085212; conditions: β-sitosterol from Ifloga spicata; cited from earlier work
[5] = system: L. donovani promastigotes 1S (MHOM/SD/62/1S); assay: Antileishmanial resazurin fluorimetric assay on promastigotes; format: cell-based, Leishmania donovani; conditions: for IC50: Leishmania donovani
Method: as §2
Leishmania donovani promastiogtes were cultured in Medium 199 (Sigma, Darmstadt, Germany) supplemented with 10% Heat-Inactivated fetal Bovine Serum (HIFBS) (Sigma, Darmstadt, Germany) and 100 IU/mL penicillin/streptomycin. The culture was maintained in 75 cm^2 cell culture flask at 28 °C and sub-cultured every 72 h.
as §1
The antileishmanial activity of crude extracts, derived fractions, and isolated compounds against cultured L. donovani promastigotes was evaluated using the resazurin fluorimetric assay as described by Siqueira-Neto et al. (2010). Briefly, promastigotes from a logarithmic phase culture (4 × 10^5 cells/mL; 90 μL) were seeded in 96-well microplates and treated with 10 μL of inhibitors at different triplicate concentrations (100 µg/mL–0.16 µg/mL for extract/fractions and 50 µg/mL–0.08 µg/mL for compounds). Plates were incubated for 28 h at 28 °C, followed by the addition of […] resazurin (0.15 mg/mL in DPBS; Sigma, Darmstadt, Germany). The negative and positive controls were, respectively, 0.1% DMSO and amphotericin B (Sigma, Darmstadt, Germany) (10–0.016 μg/mL) treated wells. After an additional incubation for 44 h, plates were then read on a Magelan Infinite M200 fluorescence plate reader (Tecan, Männedorf, Switzerland) at excitation and emission wavelengths of 530 and 590 nm, respectively. For each sample, growth inhibition percentages were calculated with Microsoft Excel Software; then, from the nonlinear regression fit, concentration–response curves were generated to deduce the median inhibitory concentration (IC50) using the GraphPad Prism 8.0 software.

[6] = system: Pf 3D7; parameters: method as in PMID 34187456; conditions: from Hymenostegia afzelii and Endodesmia calophylloides; read-out: IC50 against Pf 3D7; cited from earlier work
[7] = system: PfDd2; parameters: method as in PMID 34187456; conditions: from Hymenostegia afzelii and Endodesmia calophylloides; read-out: IC50 against PfDd2; cited from earlier work
[8] = system: Leishmania donovani; parameters: method as in PMID 24802987, PMID 36399160; conditions: cited from earlier work
[9] = system: Leishmania donovani; parameters: method as in PMID 24802987, PMID 36399160; conditions: cited from earlier work; remark: listed apart in the source
[10] = system: Leishmania donovani strain MHOM/IN/1983/AG83; parameters: method as in PMID 24949478; conditions: scopoletin from leaves of Canarium patentinervium; cited from earlier work
[11] = system: Leishmania; parameters: method as in PMID 30663371; conditions: another study; cited from earlier work
[12] = target: cholinesterase; parameters: method as in PMID 24949478; conditions: cited from earlier work
[13] = Raw 264.7 macrophages, 48 h treatment, resazurin, read-out: Cytotoxicity Raw Cells CC50 ± SD
[14] = read-out: L. donovani Promastigote IC50 ± SD, promastigotes, resazurin assay
[15] = chloroquine-sensitive strain 3D7, 72 h
[16] = chloroquine-resistant strain Dd2, 72 h
[17] = promastigotes, resazurin assay, read-out: L. donovani Promastigote IC50 ± SD

SMILES: CC[C@H](CC[C@@H](C)[C@H]1CC[C@H]2[C@@H]3CC=C4C[C@@H](O)CC[C@]4(C)[C@H]3CC[C@]12C)C(C)C [β-sitosterol (5), β-sitosterol]
- CC50 at 48 h [1, 13]: > 500 µg/mL
- IC50 ([2]; 3D7, 72 h): 45.3 ± 1.66 µg/mL
- IC50 ([3]; DD2, 72 h): > 50 µg/mL
- IC50 against leishmania promastigotes [4]: 9.2 ± 0.06 µg/mL (≈ 22.2 µM)
- IC50 [5, 14]: 5.56 ± 0.74 µg/mL (≈ 13.4 µM)

SMILES: COc1c(O)cc2c(=O)oc3c(OC)c(O)cc4c(=O)oc1c2c34 [3,3′-Dimethylellagic acid (4), 3,3′-dimethylellagic acid]
- CC50 at 48 h [1]: > 500 µg/mL
- IC50 [2, 15]: > 50 µg/mL
- IC50 [3, 16]: > 50 µg/mL
- IC50 [6]: 4270 nM
- IC50 [5, 17]: 8.07 ± 0.9 µg/mL (≈ 24.4 µM)
- IC50 [7]: 1360 nM

SMILES: O=c1ccc2cc(O)c(O)cc2o1 [Esculetin (2), 6,7-dihydroxycoumarin]
- CC50 at 48 h [1]: > 500 µg/mL
- IC50 [2, 15]: 45.57 ± 0.08 µg/mL
- IC50 [3, 16]: 9.3 ± 0.29 µg/mL
- IC50 [5, 17]: > 50 µg/mL

SMILES: COc1cc([C@@H]2c3cc4c(cc3[C@H](O)[C@H]3COC(=O)[C@H]23)OCO4)cc(OC)c1OC [Podophyllotoxin, reference compound]
- CC50 at 48 h ([1]; Raw 264.7 macrophages, positive control, unit µM, read-out: Cytotoxicity Raw Cells CC50 ± SD): 0.71 ± 0.2 µM

SMILES: O=c1oc2c(O)c(O)cc3c(=O)oc4c(O)c(O)cc1c4c23 [ellagic acid]
- parasitemia in in vivo antileishmanial mouse model [8]: significatively reduced parasitemia
- in vitro effect against Leishmania donovani [9]: exhibited an in vitro effect

SMILES: C[C@@H]1[C@H](O)[C@@H](C)/C=C/C=C/C=C/C=C/C=C/C=C/C=C/[C@H](O[C@@H]2O[C@H](C)[C@@H](O)[C@H](N)[C@@H]2O)C[C@@H]2O[C@](O)(C[C@@H](O)C[C@@H](O)[C@H](O)CC[C@@H](O)C[C@@H](O)CC(=O)O[C@H]1C)C[C@H](O)[C@H]2C(=O)O [Amphotericin B, amphotericin B, reference compound]
- IC50 [5, 17]: 2.9 ± 0.46 µg/mL (≈ 3.14 µM)

SMILES: C[C@@H]1CC[C@H]2[C@@H](C)C(=O)O[C@@H]3O[C@@]4(C)CC[C@@H]1[C@]32OO4 [Artemesin, Artemisinin, reference compound]
- IC50 ([2]; chloroquine-sensitive strain 3D7, 72 h, reference drugs in µM): 0.02 µM
- IC50 ([3]; chloroquine-resistant strain Dd2, 72 h, reference drugs in µM): 23.7 ± 0.24 µM

SMILES: COc1cc2ccc(=O)oc2cc1O [Scopoletin (3), 7-hydroxy-6-methoxycoumarin]
- CC50 at 48 h [1]: > 500 µg/mL
- IC50 against Leishmania donovani strain MHOM/IN/1983/AG83 [10]: 163.3 µg/mL (≈ 850 µM)
- IC50 [2, 15]: > 50 µg/mL
- antileishmanial activity IC50 [11]: 6.804 µg/mL
- IC50 [3, 16]: > 50 µg/mL
- anticholinesterase activity IC50 [12]: 51 µg/mL
- IC50 [5, 17]: 6.4 ± 0.8 µg/mL (≈ 33.3 µM)

SMILES: CCCCCCCC=CCCCCCCCCCCCCCC(O)C(O)C(COC1OC(CO)C(O)C(O)C1O)NC(=O)C(O)CCCCCCCCCCCCCC [Antroklaicerebroside (1), (2S,3S,4R,2′R,18E)N-((-3,4-dihydroxy-β-D-gluco-pyranosyl)oxy)hexacos-18-en-2-yl)-2-hydroxyhexadecanamide]
- CC50 at 48 h [1]: > 500 µg/mL
- IC50 [2, 15]: 42.04 ± 0.08 µg/mL
- IC50 [3, 16]: > 50 µg/mL
- melting point: 184 to 186 °C
- IC50 [5, 17]: 6.19 ± 0.79 µg/mL (≈ 7.33 µM)

SMILES: CCN(CC)CCCC(C)Nc1ccnc2cc(Cl)ccc12 (stereo not shown) [Chloroquine, reference compound]
- IC50 ([2]; 3D7, 72 h): 0.85 ± 0.01 µM
- IC50 ([3]; DD2, 72 h): 21.7 ± 0.25 µM

SMILES: CC[C@H](/C=C/[C@@H](C)[C@H]1CC[C@H]2[C@@H]3CC=C4C[C@@H](O)CC[C@]4(C)[C@H]3CC[C@]12C)C(C)C [Stigmasterol (6), stigmasterol]
- CC50 at 48 h [1, 13]: > 500 µg/mL
- IC50 ([2]; 3D7, 72 h): > 50 µg/mL
- IC50 ([3]; DD2, 72 h): > 50 µg/mL
- IC50 [5, 14]: 8.07 ± 0.9 µg/mL (≈ 19.6 µM)
- L. donovani Promastigote IC50 ± SD ([5]; promastigotes, resazurin assay): 9.14 ± 0.96 µg/mL

— article PMC10059057, “Antileishmanial and Antiplasmodial Activities of Secondary Metabolites from the Root of Antrocaryon klaineanum Pierre (Anacardiaceae)” (Molecules, 2023)
